From patent US20120245505A1, “INTRACAMERAL DEVICES FOR SUSTAINED DELIVERY” (priority 2009, published 2012)

Key:
[1] = Release of NaF from implanted intracameral device, HRA imaging; type: in vivo, New Zealand white (NZW) rabbit; conditions: rabbit eye
Protocol: FIGS. 11A-D illustrate a series of Heidelberg retina angiograph (HRA) images of diffusion from an implanted device. FIGS. 11A-D illustrate HRA images after 2 minutes, 5 minutes, 10 minutes and 20 minutes.
A device in accordance with the present disclosure was loaded with sodium fluorescein (NaF) in a polymeric delivery implant. A New Zealand white (NZW) rabbit had this device implanted in the sub-Tenon's space with the inner port extending into the anterior chamber.
FIG. 11 illustrates that in as little as 2 minutes after implantation, the NaF had begun to disperse into the anterior chamber. By 20 minutes, the NaF had substantially dispersed into most of the anterior chamber.

glaucoma = assay: Treatment of glaucoma with bimatoprost-coated intracameral implant; type: in vivo, human; conditions: person, intracameral implant coated with sustained release formulation, after 2 weeks
Description: They have previously received topical therapy, but to no avail. Their vision is worsening as time progresses. […] After 2 weeks, the IOP is reduced.

[2] = system: age-related macular degeneration; assay: Treatment of macular degeneration with bimatoprost-coated intracameral implant; type: in vivo, human; conditions: person, end of 7-year follow up
Description: A person has age-related macular degeneration and cataracts in both eyes. […] At the end of a 7-year follow up period the patient can have maintained vision in the both eyes of at least 20/32

iris = conditions: topical latanoprost (XALATAN); cited from earlier work

Structure (SMILES): O=C([O-])c1ccccc1-c1c2ccc(=O)cc-2oc2cc([O-])ccc12.[Na+].[Na+] [NaF, sodium fluorescein]
- time after implantation at which NaF had begun to disperse into the anterior chamber ([1]; FIG. 11, HRA images): ≤ 2 min
- time by which NaF had substantially dispersed into most of the anterior chamber ([1]; FIG. 11, HRA images): ≤ 20 min
- release of NaF into the anterior chamber (HRA imaging) ([1]; device with polymeric delivery implant in sub-Tenon's space, inner port extending into anterior chamber): sustained-release of NaF into the anterior chamber

Structure (SMILES): CCNC(=O)CCC/C=C\C[C@@H]1[C@@H](/C=C/[C@@H](O)CCc2ccccc2)[C@H](O)C[C@@H]1O [bimatoprost]
- IOP (glaucoma): reduced
- maintained vision in both eyes [2]: at least 20/32

Structure (SMILES): CC(C)OC(=O)CCC/C=C\C[C@@H]1[C@@H](CC[C@@H](O)CCc2ccccc2)[C@H](O)C[C@@H]1O [latanoprost]
- increase in brown pigment in the iris (iris): 5-15 % of human eyes
